Test results: patent publication US6737383B1, “Herbicidal oxadiazolidines” (priority 1999, dated 2004)

Experiments:
sugar beet = experiment: Test B pre/postemergence sugar beet; assay type: in vivo, Beta vulgaris
How it was run: (§1)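 Herbicidal effect was estimated by eye on a ten-point control scale after plants spent twelve to sixteen days in a greenhouse following soil or foliar treatment. Foliar sprays targeted plants at one to four leaves; all doses were formulated in a non-phytotoxic solvent with surfactant.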

corn = experiment: Test B pre/postemergence corn; assay type: in vivo, Zea mays
How it was run: as §1

duck salad = experiment: Test B flood test duck salad; assay type: in vivo, Heteranthera limosa; details: for Plant response rating, Ducksalad (0 to 10 scale, 0 is no effect, 10 is complete control) / Ducksalad plant response rating (0 to 10 scale, 0 is no effect, 10 is complete control): visual evaluation after twelve to sixteen days; for Ducksalad plant response rating (0 to 10 scale, 0 is no effect, 10 is complete control): under heading Pre-emergence
How it was run: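 Read-out is a visual response score from 0 (no effect) to 10 (complete control), assigned by comparison with untreated controls. Treatment was applied at the 2-leaf stage, and plants stayed in the greenhouse for twelve to sixteen days before scoring.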

rape = experiment: Test B pre/postemergence rape; assay type: in vivo, Brassica napus
How it was run: as §1

[1] = Postemergence, Rate 250 g/ha, scale 0 to 10, 0 is no effect, 10 is complete control
[2] = Postemergence, Rate 500 g/ha, scale of 0 to 10 where 0 is no effect and 10 is complete control
[3] = Preemergence, Rate 62 g/ha, scale 0 to 10 (0 no effect, 10 complete control)
[4] = Preemergence, Rate 125 g/ha, scale of 0 to 10 where 0 is no effect and 10 is complete control
[5] = Preemergence, Rate 250 g/ha, scale of 0 to 10 where 0 is no effect and 10 is complete control
[6] = Preemergence, Rate 500 g/ha, scale of 0 to 10 where 0 is no effect and 10 is complete control
[7] = Rate 62 g/ha, Postemergence, scale of 0 to 10 where 0 is no effect and 10 is complete control
[8] = Rate 62 g/ha, flood test species, Pre-emergence
[9] = Rate 125 g/ha, flood test species
[10] = Postemergence, Rate 62 g/ha, scale 0 to 10, 0 is no effect, 10 is complete control
[11] = Postemergence, Rate 125 g/ha, scale of 0 to 10 where 0 is no effect and 10 is complete control
[12] = Postemergence, Rate 250 g/ha, scale of 0 to 10, 0 is no effect, 10 is complete control
[13] = Preemergence, Rate 62 g/ha, scale of 0 to 10 where 0 is no effect and 10 is complete control
[14] = Preemergence, Rate 250 g/ha, scale 0 to 10 (0 no effect, 10 complete control)
[15] = Postemergence, Rate 250 g/ha, scale 0 to 10, 0 no effect, 10 complete control
[16] = Preemergence, Rate 125 g/ha, scale 0 to 10 (0 no effect, 10 complete control)
[17] = Preemergence, Rate 500 g/ha, scale 0 (no effect) to 10 (complete control)
[18] = Rate 125 g/ha, Postemergence, scale 0 to 10, 0 no effect, 10 complete control
[19] = Rate 500 g/ha, Postemergence, scale 0 to 10, 0 no effect, 10 complete control
[20] = Preemergence, Rate 125 g/ha, 0 is no effect, 10 is complete control
[21] = Preemergence, Rate 250 g/ha, scale 0 to 10, 0 is no effect, 10 is complete control
[22] = Preemergence, Rate 500 g/ha, scale 0 to 10 (0 no effect, 10 complete control)
[23] = Rate 250 g/ha, Postemergence, scale 0 to 10, 0 is no effect, 10 is complete control
[24] = Rate 500 g/ha, Postemergence, scale 0 to 10

CC(C)N(C(=O)n1oc(=O)n(C(CF)CF)c1=O)c1ccc(F)cc1 [Compound 390]
Plant response rating, Sugarbeets (sugar beet; [1]): 5
Sugarbeets plant response rating (sugar beet; [2]): 7
Plant response rating, Sugarbeets (sugar beet; [3]): 5
Plant response rating, Sugarbeets (sugar beet; [4]): 7
Sugarbeets plant response rating (sugar beet; [5]): 8
Sugarbeets plant response rating (sugar beet; [6]): 8
Sugarbeets plant response rating (sugar beet; [7]): 0
Plant response rating, Corn (corn; Postemergence, Rate 125 g/ha, scale 0 to 10, 0 is no effect, 10 is complete control): 0
Plant response rating, Corn (corn; [1]): 0
Corn plant response rating (corn; [2]): 0
Plant response rating, Corn (corn; [3]): 0
Plant response rating, Corn (corn; [4]): 3
Corn plant response rating (corn; [6]): 7
Corn plant response rating (corn; [7]): 0
Plant response rating, Ducksalad (0 to 10 scale, 0 is no effect, 10 is complete control) (duck salad; [8]): 0
Ducksalad plant response rating (0 to 10 scale, 0 is no effect, 10 is complete control) (duck salad; [9]): 0
Ducksalad plant response rating (duck salad; Rate 250 g/ha, Pre-emergence, flood-test species, scale 0 to 10, 0 is no effect, 10 is complete control): 0
Ducksalad plant response rating (duck salad; Rate 500 g/ha, Pre-emergence, flood test species, scale 0 to 10 (0 no effect, 10 complete control)): 3
Plant response rating, Rape (rape; [1]): 10
Rape plant response rating (rape; [2]): 10
Plant response rating, Rape (rape; [3]): 0
Plant response rating, Rape (rape; [4]): 2
Rape plant response rating (rape; [5]): 8
Rape plant response rating (rape; [6]): 8
Rape plant response rating (rape; [7]): 7

CC(C)N(C(=O)n1oc(=O)n(CC(=O)C2CCC2)c1=O)c1ccc(F)cc1 [Compound 640]
Plant response rating, Sugarbeets (sugar beet; [10]): 0
Plant response rating, Sugarbeets (sugar beet; [11]): 0
Sugarbeets plant response rating (sugar beet; [12]): 0
Sugarbeets plant response rating (sugar beet; [13]): 0
Sugarbeets plant response rating (sugar beet; [4]): 2
Plant response rating, Sugarbeets (sugar beet; [14]): 6
Plant response rating, Sugarbeets (sugar beet; [6]): 6
Plant response rating, Corn (corn; [10]): 0
Plant response rating, Corn (corn; [11]): 0
Corn plant response rating (corn; [12]): 0
Plant response rating, Corn (corn; [2]): 0
Corn plant response rating (corn; [13]): 0
Corn plant response rating (corn; [4]): 0
Plant response rating, Corn (corn; [14]): 0
Plant response rating, Corn (corn; [6]): 0
Plant response rating, Ducksalad (0 to 10 scale, 0 is no effect, 10 is complete control) (duck salad; [8]): 0
Ducksalad plant response rating (0 to 10 scale, 0 is no effect, 10 is complete control) (duck salad; [9]): 0
Ducksalad plant response rating (duck salad; Rate 250 g/ha, Pre-emergence (flood test species), scale 0 to 10, 0 is no effect, 10 is complete control): 0
Ducksalad plant response rating (duck salad; Rate 500 g/ha, Pre-emergence section of Table B, 0 to 10 scale (0 no effect, 10 complete control)): 0
Plant response rating, Rape (rape; [10]): 0
Plant response rating, Rape (rape; [11]): 0
Rape plant response rating (rape; [12]): 0
Plant response rating, Rape (rape; [2]): 0
Rape plant response rating (rape; [13]): 0
Rape plant response rating (rape; [4]): 0
Plant response rating, Rape (rape; [14]): 3
Plant response rating, Rape (rape; [6]): 6

Cc1cccc(C(C)C)c1-n1c(=O)on(C(=O)N(c2ccccc2)C(C)C)c1=O [Compound 66]
Sugarbeets plant response rating (sugar beet; [10]): 0
Sugarbeets plant response rating (sugar beet; [15]): 0
Sugarbeets plant response rating (sugar beet; [3]): 0
Plant response rating, Sugarbeets (sugar beet; [16]): 0
Plant response rating, Sugarbeets (sugar beet; [5]): 0
Sugarbeets plant response rating (sugar beet; [17]): 0
Sugarbeets plant response rating (sugar beet; [18]): 0
Sugarbeets plant response rating (sugar beet; [19]): 0
Corn plant response rating (corn; [10]): 0
Corn plant response rating (corn; [15]): 0
Corn plant response rating (corn; [3]): 0
Plant response rating, Corn (corn; [16]): 0
Plant response rating, Corn (corn; [5]): 0
Corn plant response rating (corn; [17]): 0
Corn plant response rating (corn; [18]): 0
Corn plant response rating (corn; [19]): 2
Ducksalad plant response rating (duck salad; [10]): 0
Ducksalad plant response rating (duck salad; Rate 125 g/ha, Postemergence section (flood test species), scale 0 to 10, 0 no effect, 10 complete control): 0
Ducksalad plant response rating (duck salad; Rate 500 g/ha, listed under Postemergence (flood test species), scale 0 to 10, 0 no effect, 10 complete control): 2
Ducksalad plant response rating (duck salad; flood test, listed under Postemergence, Rate 250 g/ha, scale 0 to 10, 0 no effect, 10 complete control): 0
Rape plant response rating (rape; [10]): 0
Rape plant response rating (rape; [15]): 0
Rape plant response rating (rape; [3]): 0
Plant response rating, Rape (rape; [16]): 0
Plant response rating, Rape (rape; [5]): 0
Rape plant response rating (rape; [17]): 0
Rape plant response rating (rape; [18]): 0
Rape plant response rating (rape; [19]): 0

CC(C)N(C(=O)n1oc(=O)[nH]c1=O)c1ccc(F)cc1 [Compound 164]
Sugarbeets plant response rating (sugar beet; [11]): 0
Sugarbeets plant response rating (sugar beet; [13]): 0
Sugarbeets plant response rating (0 to 10 scale) (sugar beet; [20]): 0
Sugarbeets plant response rating (sugar beet; [21]): 0
Sugarbeets plant response rating (sugar beet; [22]): 0
Sugarbeets plant response rating (sugar beet; [7]): 0
Plant response rating, Sugarbeets (sugar beet; [23]): 0
Sugarbeets plant response rating (sugar beet; [24]): 0
Corn plant response rating (corn; [11]): 0
Corn plant response rating (corn; [13]): 0
Corn plant response rating (0 to 10 scale) (corn; [20]): 0
Corn plant response rating (corn; [21]): 0
Corn plant response rating (corn; [22]): 0
Corn plant response rating (corn; [7]): 0
Plant response rating, Corn (corn; [23]): 0
Corn plant response rating (corn; [24]): 0
Ducksalad plant response rating (duck salad; Postemergence (flood test species), Rate 125 g/ha, scale of 0 to 10 where 0 is no effect and 10 is complete control): 0
Ducksalad plant response rating (duck salad; Rate 62 g/ha, Postemergence section, flood test species, scale of 0 to 10 where 0 is no effect and 10 is complete control): 0
Plant response rating, Ducksalad (duck salad; Rate 250 g/ha, Postemergence (flood test), scale 0 to 10, 0 is no effect, 10 is complete control): 0
Ducksalad plant response rating (duck salad; Rate 500 g/ha, listed under Postemergence (flood test species), scale 0 to 10): 0
Rape plant response rating (rape; [11]): 0
Rape plant response rating (rape; [13]): 0
Rape plant response rating (0 to 10 scale) (rape; [20]): 0
Rape plant response rating (rape; [21]): 0
Rape plant response rating (rape; [22]): 0
Rape plant response rating (rape; [7]): 0
Plant response rating, Rape (rape; [23]): 0
Rape plant response rating (rape; [24]): 0
